# Measured values taken from paper PMC8689140 (Frontiers in Pharmacology, 2021).
# Assays:
# [1] = Metabolite identification in dog plasma after oral dose; assay type: in vivo; settings: pooled dog plasma after single oral dose of (+)-13e at 3 μmol/kg
# Experimental: (§1) Male beagle dogs were randomly divided into four groups. […] The dogs were fasted for 12 h before treatment and 4 h after treatment, but they were granted free access to water. Blood was collected from the vein before administration and 0.083 (only for injection groups), 0.25, 0.5, 1, 2, 3, 4, 6, 8, 12 and 24 h, and placed it in heparinized tubes, and centrifuged it at 8,000 rpm for 10 min at 4°C to separate the plasma, which we stored at −20 °C until analysis. The plasma samples were pretreated by protein precipitation with acetonitrile and quantitated by the validated LC-MS/MS (Shimadzu Exion-Triple Quad 4500) method.
# Then, four volumes of acetonitrile (containing 0.1% formic acid) were added into the pooled plasma samples to precipitate the proteins. After vortex-mixing and centrifugation, the supernatants were dried under a nitrogen stream. Then, the residues were resuspended in 100 μl of acetonitrile/water (1:1, v/v) with 0.1% formic acid. After centrifugation, the supernatants were analyzed by UPLC–UV-HRMS for metabolite identification.
# The analysis was performed on Acquity UPLC system coupled with a diode array detector (Waters Corporation, United States) and Q Exactive™ Orbitrap HRMS (Thermo Electron Corporation, United States). […] The mobile phase was composed water containing 0.1% formic acid (A) and acetonitrile containing 0.1% formic acid (B). The flow rate was 0.40 ml/min. The elution conditions were the following linear gradient for metabolite identify in HLMs: 0–1 min: 95% A, 1–2 min: 80% A, 2–5 min: 80% A, 5–8 min: 70% A, 8–12 min: 30% A, 12–15 min: 5% A, 15–16 min: 95% A, and 16–18 min: 95% A. The elution conditions were the following for metabolite identify in dog plasma: 0–1 min: 95% A, 1–30 min: 70% A, 30–32 min: 30% A, 32–33 min: 5% A, 33–35 min: 95% A, and 35–40 min: 95% A.
# HRMS were operated at positive ion mode using a heating electrospray ionization source (HESI). The optimized operating parameters were set as follows: sheath gas (nitrogen) flow rate of 35 psi, aux gas (nitrogen) flow rate of 10 psi, HESI and capillary temperature of 350°C, and spray voltage of 3.5 kV. The metabolites were detected by full MS/dd-MS^2 analysis from m/z 100 to m/z 1,000. The resolution of the first-class scan and second-class scan was 70 000 and 17 500, respectively. The collision energy for collision induced dissociation (NCE) was set to 20, 40 and 60 eV. The loop count was set to five and the dynamic exclusion duration to 10 s. […] Thermo Compound Discover software was used to identify expected and unknown metabolites, and we finally proposed (+)-13e metabolic pathways based on the deduced metabolites and relevant drug biotransformation knowledge.
# [2] = design: method as in Skor et al., 2017; Stahl, 2018; settings: Figure 1A ref Skor et al., 2017, Stahl, 2018, cited from earlier work; for Plasma Leval (DTBZ): share of HTBZ isomers after deutetrabenazine; for Plasma Leval (TBZ): share of HTBZ isomers after tetrabenazine
# [3] = system: VMAT2; design: method as in Skor et al., 2017; Stahl, 2018; settings: Figure 1A ref Skor et al., 2017; Stahl, 2018; cited from earlier work
# [4] = Metabolite identification in human liver microsomes; assay type: in vitro ADME
# Experimental: (§2) Human, rat and dog liver microsomes were carefully thawed on ice prior to the experiment and diluted to 1 mg/ml in100 mM sodium phosphate buffer (pH 7.4) containing 10 mM magnesium chloride. […] After 3 min of preincubation at 37°C, the reactions were initiated by adding 20 µL of NADPH (20 mM) and then incubated at 37°C in a shaking water bath for 60 min. All samples were prepared in duplicates. The reactions were terminated by adding 600 µl of ice-cold acetonitrile and stored at −20°C until analysis. Control samples without NADPH and 0-time point samples were included. As a positive control, testosterone (10 µM) which was metabolized to produce the hydroxylation metabolite was used as a substrate to confirm the activity of the incubation system. Next, the samples were centrifuged at 13,000 rpm for 10 min, the supernatant was separated and evaporated to dryness under a nitrogen stream. The residue was resuspended in 100 μl of acetonitrile, after centrifugation, the supernatants were analyzed by UPLC–UV-HRMS.
# (§3) The analysis was performed on Acquity UPLC system coupled with a diode array detector (Waters Corporation, United States) and Q Exactive™ Orbitrap HRMS (Thermo Electron Corporation, United States). […]
# (§4) HRMS were operated at positive ion mode using a heating electrospray ionization source (HESI). […] The metabolites were detected by full MS/dd-MS^2 analysis from m/z 100 to m/z 1,000. […]
# [5] = Metabolite identification in liver microsomes from humans, dogs and rats (stated across species); assay type: in vitro ADME, human, dog, rat; settings: range or bound across the three species
# Experimental: as §2, §3, §4
# [6] = Metabolite identification in rat liver microsomes; assay type: in vitro ADME; settings: NADPH, 60 min
# Experimental: as §2, §3, §4
# [7] = Metabolite identification in dog liver microsomes; assay type: in vitro ADME
# Experimental: as §2, §3, §4
# [8] = biological target: T1, rat VMAT2 (Rattus norvegicus, UniProt Q01827); test: [3H]DA uptake assay in rat striatal synaptosomes; assay type: biochemical; settings: [3H]DA uptake, rat striatal synaptosomes
# T1 construct: in vitro [^3H]DA uptake assay in rat striatal synaptosomes; from tissue; host or cells: rat striatal synaptosomes / vesicular suspension
# T1 sequence (Q01827 whole entry): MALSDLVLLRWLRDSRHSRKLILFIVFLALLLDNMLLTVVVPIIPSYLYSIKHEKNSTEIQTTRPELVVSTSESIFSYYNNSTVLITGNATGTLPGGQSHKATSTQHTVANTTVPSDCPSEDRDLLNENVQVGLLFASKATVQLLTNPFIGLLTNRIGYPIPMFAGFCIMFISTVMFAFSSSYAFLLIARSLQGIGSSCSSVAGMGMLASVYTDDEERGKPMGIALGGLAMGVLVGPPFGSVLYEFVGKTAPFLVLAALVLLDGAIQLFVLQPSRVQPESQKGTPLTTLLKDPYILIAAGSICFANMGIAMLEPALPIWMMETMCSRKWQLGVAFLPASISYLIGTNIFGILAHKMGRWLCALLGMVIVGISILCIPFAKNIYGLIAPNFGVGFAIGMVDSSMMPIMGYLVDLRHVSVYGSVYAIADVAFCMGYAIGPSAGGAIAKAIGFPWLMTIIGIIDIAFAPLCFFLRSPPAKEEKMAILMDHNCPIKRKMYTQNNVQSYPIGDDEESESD
# Experimental: [^3H]DA (dihydroxyphenylethyethylamine, 3,4-[ring-2,5,6-^3H]; specific activity, 28.0 Ci/mmol) was purchased from Perkin Elmer. […] After drying, the filter plate was sealed with unifilter-96 back sealing tape and added 50 μl of microscint-20 (Perkin Elmer), then sealed the top of the filter plate with TopSeal-A. The radioactivity was measured by a TopCount scintillation counter. GraphPad Prism 5.0 was used to analyze data.
# [9] = system: locomotor activity of rats; test: Dose-dependent effects on locomotor activity in rats; assay type: in vivo, rat; settings: SD rats, single oral gavage 5.2 μmol/kg, 0.5-[…] after dosing
# Experimental: Before administration, animals were transported to the test room and allowed to acclimate for at least 1 h. Immediately after drug administration, rats were placed into activity chambers to assess their basal locomotor activity using the TopScan monitoring system. The total travel distance was recorded from 0.5 to 1.5 h after administration in intervals of 10 min.
# [10] = PK in dogs after single oral or intravenous dose; assay type: in vivo, dog; settings: dog
# Experimental: as §1
# The system consisted of an Exion UHPLC system (Shimadzu, Japan) and a Triple Quad 4500 mass spectrometer (AB Sciex, United States) with an electrospray ionization source. Multiple reaction monitoring in the positive ionization mode was applied to measure analytes. Chromatographic separation was performed on a Acquity BEH C18 column (50 × 2.1 mm i. d., 1.7 μm, Waters, United States). The mobile phase was composed of 0.1% FA in water (A) and 0.1% FA in acetonitrile (B), and the flow rate was 0.4 ml/min. The elution conditions were the following linear gradient: 0–0.4 min: 90% A, 0.4–0.6 min: 60% A, 0.6–1.2 min: 10% A, 1.2–2.2 min: 10% A, 2.2–2.3 min: 90% A, 2.3–3.0 min: 90% A. The optimized parameters were as follows: the spray voltage 5.5 kV, source temperature 550 °C, pressure of source gas 1 and gas 2: 55psi, pressure of curtain gas: 30psi, and the DP, EP and CE voltage was 30,6 and 40 eV, respectively.
# [11] = system: T2, rhCYP CYP3A4; test: P450 phenotyping, rhCYP isozymes, CYP3A4; assay type: in vitro ADME, human; settings: rhCYP3A4 probe substrate, 0.4 µM
# T2 construct: purchased Corning Co., Ltd (Shanghai, China)
# Excerpt: (§5) According to the result of metabolite identification, three metabolites were selected as the targets for metabolic phenotyping. Seven CYP isozymes (CYP1A2, CYP2B6, CYP2C8, CYP2C9, CYP2C19, CYP2D6, and CYP3A4) were investigated using two kinds of methods: chemical inhibitors in human liver microsomes (HLMs) method (Experiment 1) and rhCYP isozymes method (Experiment 2).
# (§6) Experiment 2: Each rhCYP isozyme was thawed and diluted as above method. As positive controls, the probe substrates of each P450 isozyme were tested under the same conditions. […] Vx ([…]) is the production rate of metabolites for each rhCYP isozyme.
# [12] = system: T3, CYP3A4; test: P450 phenotyping, chemical inhibitors in HLMs, CYP3A4; assay type: in vitro ADME, human; settings: CYP3A4 probe substrate, 2 µM, specific inhibitor
# T3 construct: tissue Corning Co., Ltd (Shanghai, China); host or cells: human liver microsomes
# Experimental: as §5
# (§7) Experiment 1: HLMs were thawed on ice and diluted in100 mM sodium phosphate buffer (pH 7.4) containing 3 mM magnesium chloride. […] After 10 min of preincubation at 37°C, the reactions were initiated by adding 20 µL of NADPH (10 mM) and then incubated at 37 °C in a shaking water bath for 30 min. The samples were prepared in triplicates. The reactions were terminated by adding 600 µL of ice-cold acetonitrile and stored at −20°C until analysis. Control samples without NADPH and 0-time point samples were included. As positive controls, the probe substrates of each P450 isozyme under the same conditions were tested, and specific inhibitors was added. Next, the samples were centrifuged at 13,000 rpm for 10 min, the supernatants were determined by LC–MS/MS.
# [13] = system: VMAT2; design: method as in Yang et al., 2021; settings: previous study ref Yang et al., 2021; read-out: affinity for VMAT2 IC50; cited from earlier work
# [14] = design: method as in Yang et al., 2021; settings: SD rats, oral administration at an equimolar dose, previous study ref Yang et al., 2021; cited from earlier work
# [15] = system: T4, rhCYP CYP2D6; test: P450 phenotyping, rhCYP isozymes, CYP2D6; assay type: in vitro ADME, human; settings: rhCYP2D6 probe substrate, 1 µM
# T4 construct: purchased Corning Co., Ltd (Shanghai, China)
# Excerpt: as §5, §6
# [16] = system: T5, CYP2D6; test: P450 phenotyping, chemical inhibitors in HLMs, CYP2D6; assay type: in vitro ADME, human; settings: CYP2D6 probe substrate, 5 µM, specific inhibitor
# T5 construct: tissue Corning Co., Ltd (Shanghai, China); host or cells: human liver microsomes
# Experimental: as §5, §7
# [17] = no peak in UV, abundance by mass spectrometry
structure (smiles),measurement,setting,value
COc1cc2c(cc1OCC(F)(F)F)CCN1C[C@@H](CC(C)(C)OC3OC(C(=O)O)C(O)C(O)C3O)[C@H](O)C[C@H]21 (stereo partly shown) [M579-1],Relative abundance UV area % in dog plasma,[1],3.43%
"COc1cc2c(cc1OC)[C@H]1C[C@@H](O)[C@H](CC(C)C)CN1CC2 [HTBZ, (+)-α-dihydrotetrabenazine]",Plasma Leval (DTBZ),[2],1.7%
same,Plasma Leval (TBZ),[2],1.8%
same,VMAT2 affinity,[3],High
COc1cc2c(cc1OC)[C@@H]1C[C@@H](O)[C@@H](CC(C)C)CN1CC2 [[-]-β-HTBZ],Plasma Leval (DTBZ),[2],6.2%
same,Plasma Leval (TBZ),[2],5.4%
same,VMAT2 affinity,[3],Low
CC(C)CC1CN2CCc3cc(OCC(F)(F)F)c(O)cc3C2CC1O (stereo not shown) [M373],Relative abundance Human (*detected by mass spectrometry),[4]; [17],0.69^* %
same,"relative abundance in liver microsomes from humans, dogs, and rats",[5],less than 3.2%
same,"Relative abundance, UV area % Rat",[6],2.6%
same,Relative abundance Dog (*detected by mass spectrometry),[7]; [17],0.46^* %
"COc1cc2c(cc1OC)C1CC(=O)C(CC(C)C)CN1CC2 (stereo not shown) [TBZ, tetrabenazine, reference compound]",IC90,[8],96.9 nM
CC(C)(O)C[C@@H]1CN2CCc3cc(OCC(F)(F)F)c(OC4OC(C(=O)O)C(O)C(O)C4O)cc3[C@H]2C[C@H]1O (stereo partly shown) [M565],Relative abundance UV area % in dog plasma,[1],10.2%
"COc1cc2c(cc1OC)[C@H]1C[C@@H](OC(=O)[C@@H](N)C(C)C)[C@H](CC(C)C)CN1CC2 [VBZ, Valbenazine ditosylate, reference compound]",reduction rate (RR) of locomotion,[9],97.9%
same,"V, V/F",[10]; single intravenous dose 0.6 μmol/kg,2.8 ± 0.5 L/kg
same,clearance,"[10]; single intravenous dose 0.6 μmol/kg, read-out: Cl, Cl/F (converted)",6 mL/min/kg
same,"V, V/F",[10]; single oral dose 3 μmol/kg,3.5 ± 0.8 L/kg
same,bioavailability,"[10]; male, beagle, plasma, dogs, oral 3 μmol/kg vs intravenous 0.6 μmol/kg, read-out: absolute oral bioavailability",74.1%
same,CL/F,"[10]; male, beagle, plasma, 3 umol/kg, single oral dose 3 μmol/kg",8 mL/min/kg
COc1cc2c(cc1OCC(F)(F)F)CCN1CC(CC(C)C)C(OC3OC(C(=O)O)C(O)C(O)C3O)CC21 (stereo not shown) [M563],Relative abundance UV area % in dog plasma,[1],9.92%
CC(C)C[C@@H]1CN2CCc3cc(OCC(F)(F)F)c(OC4OC(C(=O)O)C(O)C(O)C4O)cc3[C@H]2C[C@H]1O (stereo partly shown) [M549],Relative abundance UV area % in dog plasma,[1],7.47%
COc1cc2c(cc1OC)[C@@H]1C[C@H](O)[C@@H](CC(C)C)CN1CC2 [[-]-α-HTBZ],Plasma Leval (DTBZ),[2],48.3%
same,Plasma Leval (TBZ),[2],55.6%
same,VMAT2 affinity,[3],Low
COc1cc2c(cc1OC)[C@H]1C[C@H](O)[C@H](CC(C)C)CN1CC2 [[+]-β-HTBZ],Plasma Leval (DTBZ),[2],43.8%
same,Plasma Leval (TBZ),[2],37.2%
same,VMAT2 affinity,[3],High
Cc1ncc2n1-c1ccc(Cl)cc1C(c1ccccc1F)=NC2 [Midazolam],CL int in rhCYP,[11],9.13 µL/min/pmol
same,%Inhibation in HLM,[12],84.7%
"COc1cc2c(cc1OCC(F)(F)F)CCN1CC(CC(C)C)C(O)CC21 (racemic) [13e, 3-isobutyl-10-methoxy-9-(2,2,2-trifluoroethoxy)-1,3,4,6,7,11b-hexahydro-2H-pyrido [2,1-a]isoquinolin-2-ol]",IC50,[13],5.13 nM
same,concentration in the brain higher than that of HTBZ,[14],2 fold
COc1cc2c(cc1OCC(F)(F)F)CCN1CC(CC(C)(C)O)C(O)CC21 (stereo not shown) [M403-2],"Relative abundance, UV area % Human","[4]; NADPH, 60 min, UV area",12.11%
same,Relative abundance UV area % in dog plasma,[1],9.69%
same,"Relative abundance, UV area % Rat",[6],8.78%
same,"Relative abundance, UV area % Dog","[7]; NADPH, 60 min, UV area",10.01%
COc1ccc2c(c1)[C@]13CCCC[C@@H]1[C@H](C2)N(C)CC3 [Dextromethorphan],CL int in rhCYP,[15],13.1 µL/min/pmol
same,%Inhibation in HLM,[16],90.7%
